Laboratory results from ChEMBL document CHEMBL3885861, “Open TG-GATES”.

Species: Rattus norvegicus
Assay: Open TG-GATES - Regimen: Single
Type: toxicity, organism-based, Sprague-Dawley
Parameters: regimen Single, gender Male, age 6 weeks
Conditions: in vivo, sc, route subcutaneous injection; for APTT / Bas / Eos / Fbg / Hb / Ht / Lym / MCH / MCHC / MCV / Mono / Neu / PT / Plat / RBC / Ret / WBC: tissue Blood; for KIDNEY_L / KIDNEY_R / KIDNEY_TOTAL: tissue Kidney; for LIVER: tissue Liver; for A/G / ALP / ALT / AST / BUN / CRE / Ca / Cl / DBIL / GLC / IP / K / LDH / Na / PL / RALB / TBIL / TC / TG / TP / gamma-GTP: tissue Plasma
[1] = 0 mg/kg, 3 h, dose 0 ug/Kg, dose level Control
[2] = 0 mg/kg, 6 h, dose 0 ug/Kg, dose level Control
[3] = 0 mg/kg, 9 h, dose 0 ug/Kg, dose level Control
[4] = 0 mg/kg, 24 h, dose 0 ug/Kg, dose level Control
[5] = 0.02 mg/kg, 3 h, dose 20 ug/Kg, dose level Low
[6] = 0.02 mg/kg, 6 h, dose 20 ug/Kg, dose level Low
[7] = 0.02 mg/kg, 9 h, dose 20 ug/Kg, dose level Low
[8] = 0.02 mg/kg, 24 h, dose 20 ug/Kg, dose level Low

## CC(=O)O.N=C(N)NCCC[C@@H](NC(=O)[C@@H]1CCCN1C(=O)[C@@H]1CSSCCC(=O)N[C@@H](Cc2ccc(O)cc2)C(=O)N[C@@H](Cc2ccccc2)C(=O)N[C@@H](CCC(N)=O)C(=O)N[C@@H](CC(N)=O)C(=O)N1)C(=O)NCC(N)=O [DESMOPRESSIN ACETATE]
[1]
  TERMINAL_BW: 211.5 g
  APTT: 16.1 s
  Bas: 0%
  Eos: 0.8%
  Fbg: 234.4 mg/dL
  Hb: 12.9 g/dL
  Ht: 39.7%
  Lym: 77.8%
  MCH: 21.7 pg
  MCHC: 32.5%
  MCV: 66.7 fL
  Mono: 5.8%
  Neu: 16%
  PT: 12.1 s
  Plat: 119.2 x10_4/uL
  RBC: 595 x10_4/ul
  Ret: 11.1%
  WBC: 80.6 x10_2/uL
  KIDNEY_L: 0.9 g
  KIDNEY_R: 1 g
  KIDNEY_TOTAL: 1.9 g
  LIVER: 10.2 g
  A/G: 2.1
  ALP: 1272 IU/L
  ALT: 37.8 IU/L
  AST: 66.8 IU/L
  BUN: 12.2 mg/dL
  CRE: 0.3 mg/dL
  Ca: 11.1 mg/dL
  Cl: 104.2 meq/L
  DBIL: 0.01 mg/dL
  GLC: 188.6 mg/dL
  IP: 9.2 mg/dL
  K: 4.8 meq/L
  LDH: 104 IU/L
  Na: 138.6 meq/L
  PL: 149.4 mg/dL
  RALB: 3.7 g/dL
  TBIL: 0.042 mg/dL
  TC: 82.6 mg/dL
  TG: 81.6 mg/dL
  TP: 5.5 g/dL
  gamma-GTP: 0.8 IU/L
[2]
  TERMINAL_BW: 204.5 g
  APTT: 18 s
  Bas: 0%
  Eos: 1.2%
  Fbg: 239 mg/dL
  Hb: 12.9 g/dL
  Ht: 39.7%
  Lym: 75.6%
  MCH: 21 pg
  MCHC: 32.5%
  MCV: 64.6 fL
  Mono: 8.6%
  Neu: 14.4%
  PT: 12.6 s
  Plat: 109.8 x10_4/uL
  RBC: 616 x10_4/ul
  Ret: 8.8%
  WBC: 104 x10_2/uL
  KIDNEY_L: 0.9 g
  KIDNEY_R: 0.9 g
  KIDNEY_TOTAL: 1.8 g
  LIVER: 9.2 g
  A/G: 2.1
  ALP: 1325 IU/L
  ALT: 32 IU/L
  AST: 62 IU/L
  BUN: 12 mg/dL
  CRE: 0.4 mg/dL
  Ca: 11.2 mg/dL
  Cl: 105.2 meq/L
  DBIL: 0.01 mg/dL
  GLC: 199.2 mg/dL
  IP: 10 mg/dL
  K: 5 meq/L
  LDH: 99.4 IU/L
  Na: 137.8 meq/L
  PL: 145.6 mg/dL
  RALB: 3.7 g/dL
  TBIL: 0.048 mg/dL
  TC: 85.2 mg/dL
  TG: 53.6 mg/dL
  TP: 5.5 g/dL
  gamma-GTP: 1 IU/L
[3]
  TERMINAL_BW: 199.2 g
  APTT: 16.6 s
  Bas: 0%
  Eos: 1.2%
  Fbg: 230.8 mg/dL
  Hb: 12.8 g/dL
  Ht: 39.7%
  Lym: 66.6%
  MCH: 21.2 pg
  MCHC: 32.2%
  MCV: 65.8 fL
  Mono: 14%
  Neu: 18.2%
  PT: 12.7 s
  Plat: 119.2 x10_4/uL
  RBC: 603.8 x10_4/ul
  Ret: 9.5%
  WBC: 99.4 x10_2/uL
  KIDNEY_L: 0.9 g
  KIDNEY_R: 0.9 g
  KIDNEY_TOTAL: 1.8 g
  LIVER: 8.5 g
  A/G: 2.1
  ALP: 1072.6 IU/L
  ALT: 31 IU/L
  AST: 62.2 IU/L
  BUN: 11.6 mg/dL
  CRE: 0.3 mg/dL
  Ca: 10.8 mg/dL
  Cl: 105.8 meq/L
  DBIL: 0.012 mg/dL
  GLC: 189.6 mg/dL
  IP: 10.8 mg/dL
  K: 5 meq/L
  LDH: 88.8 IU/L
  Na: 138.2 meq/L
  PL: 140 mg/dL
  RALB: 3.6 g/dL
  TBIL: 0.046 mg/dL
  TC: 82.2 mg/dL
  TG: 52.4 mg/dL
  TP: 5.3 g/dL
  gamma-GTP: 0.6 IU/L
[4]
  TERMINAL_BW: 222.1 g
  APTT: 16.1 s
  Bas: 0%
  Eos: 1%
  Fbg: 241.7 mg/dL
  Hb: 12.7 g/dL
  Ht: 39.6%
  Lym: 75%
  MCH: 21.3 pg
  MCHC: 32.2%
  MCV: 66 fL
  Mono: 7.8%
  Neu: 16.2%
  PT: 12.1 s
  Plat: 118 x10_4/uL
  RBC: 599.6 x10_4/ul
  Ret: 9.9%
  WBC: 86.4 x10_2/uL
  KIDNEY_L: 0.9 g
  KIDNEY_R: 1 g
  KIDNEY_TOTAL: 1.9 g
  LIVER: 10.6 g
  A/G: 2
  ALP: 1741.4 IU/L
  ALT: 35.8 IU/L
  AST: 65.2 IU/L
  BUN: 16.4 mg/dL
  CRE: 0.4 mg/dL
  Ca: 11.2 mg/dL
  Cl: 104.6 meq/L
  DBIL: 0 mg/dL
  GLC: 192.4 mg/dL
  IP: 8.4 mg/dL
  K: 5.3 meq/L
  LDH: 138.4 IU/L
  Na: 138.6 meq/L
  PL: 156.2 mg/dL
  RALB: 3.7 g/dL
  TBIL: 0.016 mg/dL
  TC: 82.2 mg/dL
  TG: 125.2 mg/dL
  TP: 5.5 g/dL
  gamma-GTP: 1.2 IU/L
[5]
  TERMINAL_BW: 210.4 g
  APTT: 17.8 s
  Bas: 0%
  Eos: 1%
  Fbg: 236 mg/dL
  Hb: 12.9 g/dL
  Ht: 39.5%
  Lym: 71.4%
  MCH: 22.1 pg
  MCHC: 32.7%
  MCV: 67.5 fL
  Mono: 8.6%
  Neu: 18.6%
  PT: 12.3 s
  Plat: 120.4 x10_4/uL
  RBC: 586 x10_4/ul
  Ret: 9.1%
  WBC: 90.2 x10_2/uL
  KIDNEY_L: 1 g
  KIDNEY_R: 1 g
  KIDNEY_TOTAL: 1.9 g
  LIVER: 10 g
  A/G: 2
  ALP: 1379 IU/L
  ALT: 39.2 IU/L
  AST: 68.8 IU/L
  BUN: 21.2 mg/dL
  CRE: 0.3 mg/dL
  Ca: 11.1 mg/dL
  Cl: 102.8 meq/L
  DBIL: 0.01 mg/dL
  GLC: 194.4 mg/dL
  IP: 9.9 mg/dL
  K: 4.5 meq/L
  LDH: 123.8 IU/L
  Na: 135.4 meq/L
  PL: 142 mg/dL
  RALB: 3.6 g/dL
  TBIL: 0.05 mg/dL
  TC: 81.8 mg/dL
  TG: 64.4 mg/dL
  TP: 5.4 g/dL
  gamma-GTP: 1 IU/L
[6]
  TERMINAL_BW: 202.1 g
  APTT: 17.3 s
  Bas: 0%
  Eos: 1%
  Fbg: 232.8 mg/dL
  Hb: 12.9 g/dL
  Ht: 39.6%
  Lym: 77.8%
  MCH: 21.5 pg
  MCHC: 32.6%
  MCV: 66.1 fL
  Mono: 8%
  Neu: 13.2%
  PT: 12.7 s
  Plat: 116.8 x10_4/uL
  RBC: 598.6 x10_4/ul
  Ret: 9.1%
  WBC: 105.6 x10_2/uL
  KIDNEY_L: 1 g
  KIDNEY_R: 1 g
  KIDNEY_TOTAL: 2 g
  LIVER: 9.1 g
  A/G: 1.9
  ALP: 1160 IU/L
  ALT: 31.2 IU/L
  AST: 60 IU/L
  BUN: 25.4 mg/dL
  CRE: 0.3 mg/dL
  Ca: 10.8 mg/dL
  Cl: 103.6 meq/L
  DBIL: 0.014 mg/dL
  GLC: 199 mg/dL
  IP: 9.6 mg/dL
  K: 4.8 meq/L
  LDH: 109.4 IU/L
  Na: 135 meq/L
  PL: 142.8 mg/dL
  RALB: 3.5 g/dL
  TBIL: 0.074 mg/dL
  TC: 85 mg/dL
  TG: 62.4 mg/dL
  TP: 5.3 g/dL
  gamma-GTP: 1 IU/L
[7]
  TERMINAL_BW: 202.1 g
  APTT: 16.9 s
  Bas: 0%
  Eos: 1.4%
  Fbg: 229 mg/dL
  Hb: 13 g/dL
  Ht: 40.1%
  Lym: 72%
  MCH: 21.8 pg
  MCHC: 32.6%
  MCV: 67.1 fL
  Mono: 8.4%
  Neu: 18.4%
  PT: 12.8 s
  Plat: 118 x10_4/uL
  RBC: 598.2 x10_4/ul
  Ret: 9.3%
  WBC: 94.6 x10_2/uL
  KIDNEY_L: 1 g
  KIDNEY_R: 0.9 g
  KIDNEY_TOTAL: 1.9 g
  LIVER: 8.7 g
  A/G: 2.2
  ALP: 1148.8 IU/L
  ALT: 32.2 IU/L
  AST: 62.6 IU/L
  BUN: 24.4 mg/dL
  CRE: 0.3 mg/dL
  Ca: 11 mg/dL
  Cl: 103.8 meq/L
  DBIL: 0.016 mg/dL
  GLC: 198.4 mg/dL
  IP: 10.6 mg/dL
  K: 5.1 meq/L
  LDH: 143.8 IU/L
  Na: 136.4 meq/L
  PL: 136.6 mg/dL
  RALB: 3.6 g/dL
  TBIL: 0.056 mg/dL
  TC: 78.2 mg/dL
  TG: 47.6 mg/dL
  TP: 5.3 g/dL
  gamma-GTP: 0.4 IU/L
[8]
  TERMINAL_BW: 220.6 g
  APTT: 16.9 s
  Bas: 0%
  Eos: 1%
  Fbg: 245.2 mg/dL
  Hb: 12.8 g/dL
  Ht: 39.6%
  Lym: 74%
  MCH: 21.3 pg
  MCHC: 32.4%
  MCV: 65.9 fL
  Mono: 7.8%
  Neu: 17.2%
  PT: 12.1 s
  Plat: 134.8 x10_4/uL
  RBC: 601 x10_4/ul
  Ret: 10.2%
  WBC: 109.6 x10_2/uL
  KIDNEY_L: 1 g
  KIDNEY_R: 1 g
  KIDNEY_TOTAL: 1.9 g
  LIVER: 10.3 g
  A/G: 2
  ALP: 1595.4 IU/L
  ALT: 35 IU/L
  AST: 63.8 IU/L
  BUN: 15 mg/dL
  CRE: 0.4 mg/dL
  Ca: 11.3 mg/dL
  Cl: 104.8 meq/L
  DBIL: 0 mg/dL
  GLC: 193.2 mg/dL
  IP: 7.8 mg/dL
  K: 5.2 meq/L
  LDH: 137 IU/L
  Na: 137.8 meq/L
  PL: 152.8 mg/dL
  RALB: 3.7 g/dL
  TBIL: 0.022 mg/dL
  TC: 83.8 mg/dL
  TG: 98.6 mg/dL
  TP: 5.5 g/dL
  gamma-GTP: 1.2 IU/L
